Experiments:
[1] = target: T1, Geranylgeranyl pyrophosphate synthase (Homo sapiens, UniProt O95749)
T1 sequence (O95749 whole entry): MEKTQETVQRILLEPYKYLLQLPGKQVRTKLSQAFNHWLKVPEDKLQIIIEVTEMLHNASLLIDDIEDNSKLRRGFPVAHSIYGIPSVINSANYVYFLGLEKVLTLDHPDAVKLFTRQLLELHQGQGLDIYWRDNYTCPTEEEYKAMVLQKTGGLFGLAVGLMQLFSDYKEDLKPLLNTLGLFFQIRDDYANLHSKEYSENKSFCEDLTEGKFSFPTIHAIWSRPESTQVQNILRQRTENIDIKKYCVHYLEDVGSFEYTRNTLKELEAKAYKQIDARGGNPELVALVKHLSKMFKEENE

RPMI-8226 = experiment: cells; conditions: Homo sapiens, RPMI-8226, 72 h
[2] = target: T2, Farnesyl pyrophosphate synthase (Homo sapiens) (UniProt P14324); experiment: Inhibition of human FPPS expressed in Escherichia coli BL21 (DE3) at 1 uM preincubated for 10 mins in presence compound relative to control
T2 sequence (whole entry): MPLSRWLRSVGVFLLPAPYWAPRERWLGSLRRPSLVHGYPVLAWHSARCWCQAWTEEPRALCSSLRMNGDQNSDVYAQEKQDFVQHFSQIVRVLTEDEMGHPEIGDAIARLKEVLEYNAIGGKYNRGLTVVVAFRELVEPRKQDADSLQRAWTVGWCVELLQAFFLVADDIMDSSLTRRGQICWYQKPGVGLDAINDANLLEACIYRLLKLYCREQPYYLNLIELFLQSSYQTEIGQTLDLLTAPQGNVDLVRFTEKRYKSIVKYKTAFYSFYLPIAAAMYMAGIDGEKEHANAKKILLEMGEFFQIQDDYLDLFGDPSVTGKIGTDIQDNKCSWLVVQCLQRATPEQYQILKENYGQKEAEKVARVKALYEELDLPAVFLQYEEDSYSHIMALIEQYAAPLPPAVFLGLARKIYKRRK

in vitro = conditions: human, bone marrow mononuclear cells
[3] = target: T3, Farnesyl pyrophosphate synthase (Homo sapiens, UniProt P14324)
T3 sequence (P14324 whole entry): T2 sequence (whole entry)

Structure (SMILES) | IC50 [1] [nM] | EC50 (RPMI-8226) [nM] | inhibition [2] [%] | viability at 72 h, 0.05 µM (in vitro) [%] | IC50 [3] [nM]
O=P(O)(O)C(Nc1nc(-c2ccccc2)nc2sccc12)P(=O)(O)O | 37 | > 10000 | – | – | –
CC(C)O[C@H](C(=O)Nc1cccc(-c2nc(NC(P(=O)(O)O)P(=O)(O)O)c3ccsc3n2)c1)c1ccccc1 | 21 | 135 | 35 | – | –
O=C(Nc1ccc(F)cc1)Nc1cccc(-c2nc(NC(P(=O)(O)O)P(=O)(O)O)c3ccsc3n2)c1 | 41 | 4100 | 90 | – | –
CC(C)O[C@@H](C(=O)Nc1cccc(-c2nc(NC(P(=O)(O)O)P(=O)(O)O)c3ccsc3n2)c1)c1ccccc1 | 23 | 910 | – | – | –
CO[C@@H](C(=O)Nc1cccc(-c2nc(NC(P(=O)(O)O)P(=O)(O)O)c3ccsc3n2)c1)c1ccccc1 | 39 | 920 | 48 | – | –
O=C(Nc1cccc(-c2nc(NC(P(=O)(O)O)P(=O)(O)O)c3ccsc3n2)c1)c1ccccc1 | 19 | > 500 | 40 | – | –
Cc1ccc(NC(=O)c2cccc(-c3nc(NC(P(=O)(O)O)P(=O)(O)O)c4ccsc4n3)c2)cc1Br | 15 | 161 | 12 | – | –
COc1ccc(NS(=O)(=O)c2cccc(-c3nc(NC(P(=O)(O)O)P(=O)(O)O)c4ccsc4n3)c2)cc1F | 23 | 5000 | 25 | – | –
O=C(Cc1ccccc1)Nc1cccc(-c2nc(NC(P(=O)(O)O)P(=O)(O)O)c3ccsc3n2)c1 | 23 | 740 | 55 | – | –
CC(C)C[C@H](NC(=O)[C@H](CCc1ccccc1)NC(=O)CN1CCOCC1)C(=O)N[C@@H](Cc1ccccc1)C(=O)N[C@@H](CC(C)C)C(=O)[C@@]1(C)CO1 [CARFILZOMIB] | – | – | – | 43.6 | –
COc1ccc(S(=O)(=O)Nc2cccc(-c3nc(NC(P(=O)(O)O)P(=O)(O)O)c4ccsc4n3)c2)cc1F | 24 | 4700 | 40 | – | –
COc1ccc(NC(=O)Nc2cccc(-c3nc(NC(P(=O)(O)O)P(=O)(O)O)c4ccsc4n3)c2)cc1F | 34 | 1300 | – | – | –
COc1ccc([C@H](OC(C)C)C(=O)Nc2cccc(-c3nc(NC(P(=O)(O)O)P(=O)(O)O)c4ccsc4n3)c2)cc1F | 17 | 880 | – | – | 460
O=C(Cc1cccnc1)Nc1cccc(-c2nc(NC(P(=O)(O)O)P(=O)(O)O)c3ccsc3n2)c1 | 71 | 1200 | 60 | – | –
COc1ccc(C(=O)Nc2cccc(-c3nc(NC(P(=O)(O)O)P(=O)(O)O)c4ccsc4n3)c2)cc1F | 29 | 460 | 60 | – | –
O=C(Nc1cccc(-c2nc(NC(P(=O)(O)O)P(=O)(O)O)c3ccsc3n2)c1)c1ccc(C(F)(F)F)cn1 | 52 | 21300 | 60 | – | –
O=C(Nc1cccc(-c2nc(NC(P(=O)(O)O)P(=O)(O)O)c3ccsc3n2)c1)c1ccc(C(F)(F)F)cc1 | 18 | 710 | 40 | – | –
Cc1ccc(S(=O)(=O)Nc2cccc(-c3nc(NC(P(=O)(O)O)P(=O)(O)O)c4ccsc4n3)c2)cc1F | 23 | 7800 | 30 | – | –
O=C(Nc1cccc(-c2nc(NC(P(=O)(O)O)P(=O)(O)O)c3ccsc3n2)c1)c1ccc(F)cc1 | 25 | – | 30 | – | –
COc1ccc(C(=O)Nc2cccc(-c3nc(NC(P(=O)(O)O)P(=O)(O)O)c4ccsc4n3)c2)cc1Br | 36 | > 500 | 40 | – | –
CO[C@H](C(=O)Nc1cccc(-c2nc(NC(P(=O)(O)O)P(=O)(O)O)c3ccsc3n2)c1)c1ccccc1 | 38 | 390 | 55 | – | –
Cc1ccc(C(=O)Nc2cccc(-c3nc(NC(P(=O)(O)O)P(=O)(O)O)c4ccsc4n3)c2)cc1F | 21 | 290 | 35 | – | –
CC(C)C[C@H](NC(=O)[C@H](Cc1ccccc1)NC(=O)c1cnccn1)B(O)O [BORTEZOMIB] | – | – | – | 40.1 | –
Cc1ccc(NC(=O)c2cccc(-c3nc(NC(P(=O)(O)O)P(=O)(O)O)c4ccsc4n3)c2)cc1F | 31 | 130 | 28 | – | –
COc1ccc([C@@H](OC(C)C)C(=O)Nc2cccc(-c3nc(NC(P(=O)(O)O)P(=O)(O)O)c4ccsc4n3)c2)cc1F | 20 | > 5000 | – | – | 730
O=C(Nc1ccccc1)c1cccc(-c2nc(NC(P(=O)(O)O)P(=O)(O)O)c3ccsc3n2)c1 | 41 | – | – | – | –

— ChEMBL document CHEMBL5046266, “Synthesis and Evaluation of Structurally Diverse C-2-Substituted Thienopyrimidine-Based Inhibitors of the Human Geranylgeranyl Pyrophosphate Synthase” (J Med Chem, 2022)
